The test system of assay [1] is HCCLM3. Description: Cytotoxicity against PC knockout human HCCLM3 cells assessed as reduction in cell viability at 20 to 100 nM measured after 48 hrs by MTT assay. The conditions noted are these: dose 20-100 nM. Format: functional, cell-based.
Assay [2] deals with HCCLM3. Description: Induction of glycolysis in human HCCLM3 cells assessed as decrease in level of ATP at 5 nM. Format: functional, cell-based.
Assay [3] has as its system HCCLM3. Description: Induction of apoptosis in human HCCLM3 cells assessed as nuclear condensation at 20 nM incubated for 24 hrs by DAPI staining based phase contrast microscopic analysis. Format: functional, cell-based.
Assay [4] deals with HepG2. Description: Induction of apoptosis in human HepG2 cells transfected with PC-flag plasmid assessed as reduction in cell viability at 20 to 100 nM incubated for 48 hrs by MTT assay. The conditions noted are these: dose 20-100 nM. It counts as functional, cell-based.
Assay [5] deals with HCCLM3. Description: Inhibition of epithelial-mesenchymal transition in human HCCLM3 cells assessed as decrease in fibronectin expression level at 0.05 to 1 nM incubated for 24 hrs by Western blot analysis. The conditions noted are these: dose 0.05-1 nM. Format: functional, cell-based.
Assay [6] deals with HepG2. Description: Induction of apoptosis in human HepG2 cells assessed as cell rounding at 100 nM incubated for 24 hrs by DAPI staining based phase contrast microscopic analysis. It counts as functional.
A short description of assay [7]: Inhibition of pyruvate carboxylase in human HepG2 cells measured upto 24 hrs by PC assay kit. It counts as cell-based.
Assay [8] is described as follows: Antiproliferative activity against human HCCLM3 cells assessed as inhibition of cell growth measured after 48 hrs by MTT assay. To be noted: HCCLM3, 48 h. Format: functional, cell-based. (Formazan colour is commonly taken as a measure of viable cells.)
Assay [9] concerns HCCLM3. Description: Inhibition of epithelial-mesenchymal transition in human HCCLM3 cells assessed as upregulation of E-cadherin expression at 0.05 to 1 nM incubated for 24 hrs by Western blot analysis. To be noted: dose 0.05-1 nM. It counts as functional, cell-based.

The source made the active and inactive calls. No cut-off for these calls is given here.

`COc1ccc(CCc2cc(OC)c(OC)c(OC)c2)cc1O`: the result in assay [1] and in assay [4] was inactive. The result in assay [2], in assay [3] and in [6] was Active. For the same molecule, the inhibition result in assay [5] and in assay [9] was “Active” in each case. Besides, the results for the 50% inhibitory concentration (IC50) in assay [7] and in [8] were 0.00935 µM and 0.0177 µM, respectively.

The values are drawn from ChEMBL document CHEMBL5046245, “Identification of Pyruvate Carboxylase as the Cellular Target of Natural Bibenzyls with Potent Anticancer Activity against Hepatocellular Carcinoma via Metabolic Reprogramming” (J Med Chem, 2022).
